Reference: US10954252B1, “Inhibitors of human immunodeficiency virus replication” (ViiV HEALTHCARE UK (NO.5) LIMITED, priority 2017, dated 2021)

Legend:
[1] = Compound cytotoxicity, XTT-based colorimetric assay; assay type: cell-based; settings: human, uninfected MT2 cells
Procedure, shortened: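 XTT colorimetric read-out on day 4 gave CC50 values, using MT2 cells left uninfected but otherwise handled as in the antiviral assay.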

[2] = tested on: recombinant NL4-3 virus (nef section replaced with Renilla luciferase gene) in MT-2 cells; assay: HIV cell culture assay (antiviral activity, luciferase readout); assay type: cell-based; settings: MT-2 cells infected for 4-5 days with recombinant NL4-3 luciferase virus
Procedure, shortened: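 Serially diluted compounds were present throughout a 4-5 day infection of MT-2 cells by recombinant NL4-3 whose nef region partly encodes Renilla luciferase. Antiviral activity was taken from live-cell luciferase signal, with the 50% effective concentration fitted by the exponential median effect equation.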

| Structure (SMILES) | CC50 at 4 days ([1]; Table 1a, day 4, XTT) | CC50 at 4 days ([1]; Table 1, day 4, XTT) | EC50 ([2]; Renilla, NL43, Table 1) | also measured |
| --- | --- | --- | --- | --- |
| Cc1ccn(CC(=O)N[C@@H](Cc2cc(F)cc(F)c2)c2nc3ncccc3c(=O)n2-c2ccc(Cl)c3c(NS(C)(=O)=O)nn(C)c23)n1 (single isomer, unassigned) [Example 47.1] | > 1000 nM | – | – | EC50 ([2]; Table 1a): 227 nM |
| CS(=O)(=O)NC(=O)c1cc(-c2cc3[nH]ncc3nc2[C@H](Cc2cc(F)cc(F)c2)NC(=O)Cn2nc(C(F)F)c3c2C(F)(F)[C@@H]2C[C@H]32)ccc1Cl [Example 10.18, 2-Chloro-5-(5-((S)-1-(2-((3bS,4aR)-3-(difluoromethyl)-5,5-difluoro-3b,4,4a,5-tetrahydro-1H-cyclopropa[3,4]cyclopenta[1,2-c]pyrazol-1-yl)acetamido)-2-(3,5-difluorophenyl)ethyl)-1H-pyrazolo[4,3-b]pyridin-6-yl)-N-(methylsulfonyl)benzamide] | – | > 10000 nM | 670 nM | – |
| CS(=O)(=O)NC(=O)c1cc(-c2cc3[nH]ncc3nc2[C@H](Cc2cc(F)cc(F)c2)NC(=O)Cn2nc(C(F)F)c3c2C(F)(F)[C@@H]2C[C@H]32)ccc1F [Example 10.26, 5-(5-((S)-1-(2-((3bS,4aR)-3-(difluoromethyl)-5,5-difluoro-3b,4,4a,5-tetrahydro-1H-cyclopropa[3,4]cyclopenta[1,2-c]pyrazol-1-yl)acetamido)-2-(3,5-difluorophenyl)ethyl)-1H-pyrazolo[4,3-b]pyridin-6-yl)-2-fluoro-N-(methylsulfonyl)benzamide] | – | > 10000 nM | 930 nM | – |
| Cn1nc(NS(C)(=O)=O)c2c(Cl)ccc(-n3c([C@H](Cc4cc(F)cc(F)c4)NC(=O)Cn4nc(C(F)F)c5c4C(F)(F)[C@@H]4C[C@H]54)nc4cc(Cl)ccc4c3=O)c21 (mixture of isomers) [Example 167, N—((S)-1-(7-chloro-3-(4-chloro-1-methyl-3-(methylsulfonamido)-1H-indazol-7-yl)-4-oxo-3,4-dihydroquinazolin-2-yl)-2-(3,5-difluorophenyl)ethyl)-2-((3bS,4aR)-3-(difluoromethyl)-5,5-difluoro-3b,4,4a,5-tetrahydro-1H-cyclopropa[3,4]cyclopenta[1,2-c]pyrazol-1-yl)acetamide] | > 1000 nM | – | – | EC50 ([2]; Table 1a): 80.5 nM |
| Cn1nc(NS(C)(=O)=O)c2c(Cl)ccc(-c3cc4[nH]ccc4nc3C(Cc3cc(F)cc(F)c3)NC(=O)Cn3nc(C(F)F)c4c3C(F)(F)[C@@H]3C[C@H]43)c21 (single isomer, unassigned) [Example 5.1] | – | > 10000 nM | – | EC50 ([2]; Table 1): 220 nM |
| O=C(Cn1nc(C(F)F)c2c1C(F)(F)[C@@H]1C[C@H]21)N[C@@H](Cc1cc(F)cc(F)c1)c1nc2cn[nH]c2cc1-c1ccc(Cl)c(C(=O)NS(=O)(=O)C2CC2)c1 [Example 10.16, 2-Chloro-N-(cyclopropylsulfonyl)-5-(5-((S)-1-(2-((3bS,4aR)-3-(difluoromethyl)-5,5-difluoro-3b,4,4a,5-tetrahydro-1H-cyclopropa[3,4]cyclopenta[1,2-c]pyrazol-1-yl)acetamido)-2-(3,5-difluorophenyl)ethyl)-1H-pyrazolo[4,3-b]pyridin-6-yl)benzamide] | – | > 10000 nM | 340 nM | – |
| Cn1nc(NS(C)(=O)=O)c2cccc(-n3c(C(Cc4cc(F)cc(F)c4)NC(=O)Cn4nc(C(F)F)c5c4C(F)(F)[C@@H]4C[C@H]54)nc4ccccc4c3=O)c21 (single isomer, unassigned) [Example 69] | > 1000 nM | – | – | EC50 ([2]; Renilla, NL43, Table 1a): 78.3 nM |
| COc1c(F)ccc2c(=O)n(-c3ccc(Cl)c4c(NS(C)(=O)=O)nn(C)c34)c([C@H](Cc3cc(F)cc(F)c3)NC(=O)Cn3nc(C(F)F)c4c3C(F)(F)[C@@H]3C[C@H]43)nc12 (single isomer, unassigned) [Example 109] | > 1000 nM | – | – | EC50 ([2]; Table 1a): 118 nM |
| O=C(Cn1nc(C(F)F)c2c1C(F)(F)[C@@H]1C[C@H]21)NC(Cc1cc(F)cc(F)c1)c1ncc2nc[nH]c2c1-c1ccc2scnc2c1 (single isomer, unassigned) [Example 7.1] | – | 16200 nM | – | EC50 ([2]; Table 1): 140 nM |
| CC(C)c1ccc(-n2c([C@H](Cc3cc(F)cc(F)c3)NC(=O)Cn3nc(C(F)F)c4c3C(F)(F)[C@@H]3C[C@H]43)nc3cc(C#N)ccc3c2=O)cn1 [Example 163, N—((S)-1-(7-cyano-3-(6-isopropylpyridin-3-yl)-4-oxo-3,4-dihydroquinazolin-2-yl)-2-(3,5-difluorophenyl)ethyl)-2-((3bS,4aR)-3-(difluoromethyl)-5,5-difluoro-3b,4,4a,5-tetrahydro-1H-cyclopropa[3,4]cyclopenta[1,2-c]pyrazol-1-yl)acetamide] | 3980 nM | – | – | EC50 ([2]; Renilla, NL43, Table 1a): 11.9 nM |
| Cn1nc(NS(C)(=O)=O)c2c(Cl)ccc(-n3c([C@H](Cc4cc(F)cc(F)c4)NC(=O)Cn4ccc(C5CC5)n4)nc4ncccc4c3=O)c21 [Example 15, (S)—N-(1-(3-(4-chloro-1-methyl-3-(methylsulfonamido)-1H-indazol-7-yl)-4-oxo-3,4-dihydropyrido[2,3-d]pyrimidin-2-yl)-2-(3,5-difluorophenyl)ethyl)-2-(3-cyclopropyl-1H-pyrazol-1-yl)acetamide] | – | > 1000 nM | 320 nM | – |
| O=C(Cc1c[nH]c2ccc(O)cc12)N[C@@H](Cc1cc(F)cc(F)c1)c1nc2ccccc2nc1-c1ccc2c(c1)C(=O)NC2 [Example 158, (S)—N-(2-(3,5-difluorophenyl)-1-(3-(3-oxoisoindolin-5-yl)quinoxalin-2-yl)ethyl)-2-(5-hydroxy-1H-indol-3-yl)acetamide] | > 10000 nM | – | – | EC50 ([2]; Renilla, NL43, Table 1a): 102 nM |
| Cn1nc(NS(C)(=O)=O)c2c(Cl)ccc(-c3cc4[nH]ncc4nc3[C@H](Cc3cc(F)cc(F)c3)NC(=O)Cc3c[nH]c4ccc(O)cc34)c21 [Example 10.22] | – | > 10000 nM | 22 nM | – |
| Cc1ccc2c(=O)n(-c3ccc(Cl)c4c(NS(C)(=O)=O)nn(C)c34)c(C(Cc3cc(F)cc(F)c3)NC(=O)Cn3nc(C(F)F)c4c3C(F)(F)[C@@H]3C[C@H]43)nc2n1 (mixture of isomers) [Example 41.1] | > 10000 nM | – | – | EC50 ([2]; Renilla, NL43, Table 1a): 21.2 nM |
| CC(C)(C)c1ccc2c(=O)n(-c3ccc(Cl)c4c(NS(=O)(=O)C5CC5)nn(CC(F)F)c34)c([C@H](Cc3cc(F)cc(F)c3)NC(=O)Cn3nc(C(F)F)c4c3C(F)(F)[C@@H]3C[C@H]43)nc2c1 [Example 218, N—((S)-1-(7-(tert-Butyl)-3-(4-chloro-3-(cyclopropanesulfonamido)-1-(2,2-difluoroethyl)-1H-indazol-7-yl)-4-oxo-3,4-dihydroquinazolin-2-yl)-2-(3,5-difluorophenyl)ethyl)-2-((3bS,4aR)-3-(difluoromethyl)-5,5-difluoro-3b,4,4a,5-tetrahydro-1H-cyclopropa[3,4]cyclopenta[1,2-c]pyrazol-1-yl)acetamide] | > 1000 nM | – | – | EC50 ([2]; Renilla, NL43, Table 1a): 0.73 nM |
| O=C(Cn1nc(C(F)F)c2c1C(F)(F)[C@@H]1C[C@H]21)NC(Cc1cc(F)cc(F)c1)c1nc2ncccc2c(=O)n1-c1ccc(Cl)cc1 (stereo partly drawn) [Example 123, N-(1-(3-(4-chlorophenyl)-4-oxo-3,4-dihydropyrido[2,3-d]pyrimidin-2-yl)-2-(3,5-difluorophenyl)ethyl)-2-((3bS,4aR)-3-(difluoromethyl)-5,5-difluoro-3b,4,4a,5-tetrahydro-1H-cyclopropa[3,4]cyclopenta[1,2-c]pyrazol-1-yl)acetamide] | > 1000 nM | – | – | EC50 ([2]; Renilla, NL43, Table 1a): 408 nM |
| Cn1nc(NS(C)(=O)=O)c2c(Cl)ccc(-n3c([C@H](Cc4cc(F)cc(F)c4)NC(=O)Cn4nc(C(F)F)c5c4C(F)(F)[C@@H]4C[C@H]54)nc4c(Cl)cccc4c3=O)c21 (single isomer, unassigned) [Example 101] | > 1000 nM | – | – | EC50 ([2]; Table 1a): 335 nM |
| Cn1nc(NS(C)(=O)=O)c2c(Cl)ccc(-c3cc4[nH]ncc4nc3[C@H](Cc3cc(F)cc(F)c3)NC(=O)Cn3nc(C(F)F)c4c3C(F)(F)[C@@H]3C[C@H]43)c21 [Example 3.7, N—((S)-1-(6-(4-chloro-1-methyl-3-(methylsulfonamido)-1H-indazol-7-yl)-1H-pyrazolo[4,3-b]pyridin-5-yl)-2-(3,5-difluorophenyl)ethyl)-2-((3bS,4aR)-3-(difluoromethyl)-5,5-difluoro-3b,4,4a,5-tetrahydro-1H-cyclopropa[3,4]cyclopenta[1,2-c]pyrazol-1-yl)acetamide] | – | 33900 nM | 1.2 nM | – |
| CNC(=O)c1cc(-c2cc3[nH]ncc3nc2[C@H](Cc2cc(F)cc(F)c2)NC(=O)Cn2nc(C(F)F)c3c2C(F)(F)[C@@H]2C[C@H]32)ccc1F [Example 10.7, 5-(5-((S)-1-(2-((3bS,4aR)-3-(difluoromethyl)-5,5-difluoro-3b,4,4a,5-tetrahydro-1H-cyclopropa[3,4]cyclopenta[1,2-c]pyrazol-1-yl)acetamido)-2-(3,5-difluorophenyl)ethyl)-1H-pyrazolo[4,3-b]pyridin-6-yl)-2-fluoro-N-methylbenzamide] | – | > 10000 nM | 51 nM | – |
| Cn1nc(NS(C)(=O)=O)c2c(Cl)ccc(-c3c(C(Cc4cc(F)cc(F)c4)NC(=O)Cn4nc(C(F)F)c5c4C(F)(F)[C@@H]4C[C@H]54)ncc4[nH]cnc34)c21 (single isomer, unassigned) [Example 7.3] | – | > 10000 nM | – | EC50 ([2]; Table 1): 10000 nM |
| CC1(S(=O)(=O)NC(=O)c2cc(-c3cc4[nH]ncc4nc3[C@H](Cc3cc(F)cc(F)c3)NC(=O)Cn3nc(C(F)F)c4c3C(F)(F)[C@@H]3C[C@H]43)ccc2Cl)CC1 [Example 10.20, 2-Chloro-5-(5-((S)-1-(2-((3bS,4aR)-3-(difluoromethyl)-5,5-difluoro-3b,4,4a,5-tetrahydro-1H-cyclopropa[3,4]cyclopenta[1,2-c]pyrazol-1-yl)acetamido)-2-(3,5-difluorophenyl)ethyl)-1H-pyrazolo[4,3-b]pyridin-6-yl)-N-((1-methylcyclopropyl)sulfonyl)benzamide] | – | > 10000 nM | 290 nM | – |
